Reference: ChEMBL document CHEMBL3044751, “Structure-based design, synthesis, and molecular modeling studies of 1-(benzo[d]thiazol-2-yl)-3-(substituted aryl)urea derivatives as novel anti-Parkinsonian agents” (2012)

How the values were obtained:
Format in all cases: functional
Settings in all cases: route intraperitoneal
Mus musculus [1] = assay: Antiparkinsonian activity against haloperidol-induced catalepsy in Mus musculus Swiss albino (mouse) assessed as decrease in mean descent time at 100 mg/kg, ip administered 30 min prior to haloperidol injection measured after 120 min
Mus musculus [2] = assay: Antiparkinsonian activity against haloperidol-induced catalepsy in Mus musculus Swiss albino (mouse) assessed as decrease in mean descent time at 100 mg/kg, ip administered 30 min prior to haloperidol injection measured after 150 min
Mus musculus [3] = assay: Antiparkinsonian activity against haloperidol-induced catalepsy in Mus musculus Swiss albino (mouse) assessed as decrease in mean descent time at 100 mg/kg, ip administered 30 min prior to haloperidol injection measured after 180 min
Mus musculus [4] = assay: Antiparkinsonian activity against haloperidol-induced catalepsy in Mus musculus Swiss albino (mouse) assessed reduction in catalepsy at 100 mg/kg, ip administered 30 min prior to haloperidol injection measured after 30 to 180 min; parameters: scale not given: the % may be the effect or the level left
Mus musculus [5] = assay: Antiparkinsonian activity against haloperidol-induced catalepsy in Mus musculus Swiss albino (mouse) assessed as decrease in mean descent time at 100 mg/kg, ip administered 30 min prior to haloperidol injection measured after 30 min
Mus musculus [6] = assay: Antiparkinsonian activity against haloperidol-induced catalepsy in Mus musculus Swiss albino (mouse) assessed as decrease in mean descent time at 100 mg/kg, ip administered 30 min prior to haloperidol injection measured after 60 min
Mus musculus [7] = assay: Antiparkinsonian activity against haloperidol-induced catalepsy in Mus musculus Swiss albino (mouse) assessed as decrease in mean descent time at 100 mg/kg, ip administered 30 min prior to haloperidol injection measured after 90 min
Mus musculus [8] = assay: Antiparkinsonian activity against haloperidol-induced oxidative stress in Mus musculus Swiss albino (mouse) assessed reduction in superoxide dismutase activity in brain by measuring malondialdehyde level at 100 mg/kg, ip administered 30 min prior to haloperidol injection by NBT reduction assay
Mus musculus [9] = assay: Antiparkinsonian activity against haloperidol-induced oxidative stress in Mus musculus Swiss albino (mouse) assessed reduction in glutathione level in brain by measuring malondialdehyde level at 100 mg/kg, ip administered 30 min prior to haloperidol injection
Mus musculus [10] = assay: Antiparkinsonian activity against haloperidol-induced oxidative stress in Mus musculus Swiss albino (mouse) assessed reduction in lipid peroxidation in brain by measuring malondialdehyde level at 100 mg/kg, ip administered 30 min prior to haloperidol injection by TBARS assay
Mus musculus [11] = assay: Antiparkinsonian activity against haloperidol-induced oxidative stress in Mus musculus Swiss albino (mouse) assessed reduction in glutathione peroxidase activity in brain by measuring malondialdehyde level at 100 mg/kg, ip administered 30 min prior to haloperidol injection

SMILES	Time (Mus musculus [1])	Time (Mus musculus [2])	Time (Mus musculus [3])	Activity (Mus musculus [4])	Time (Mus musculus [5])	Time (Mus musculus [6])	Time (Mus musculus [7])	Activity (Mus musculus [8])	Activity (Mus musculus [9])	Activity (Mus musculus [10])	Activity (Mus musculus [11])
O=C(Nc1nc2ccccc2s1)Nc1ccccc1F	207 s	223 s	241 s	30.8%	81 s	145 s	193 s	–	–	–	–
O=C(Nc1ccc(Br)cc1)Nc1nc2ccccc2s1	196 s	211 s	216 s	35.4%	87 s	132 s	178 s	–	–	–	–
O=C(Nc1nc2ccccc2s1)Nc1ccccc1[N+](=O)[O-]	85 s	99 s	130 s	71.4%	23 s	56 s	77 s	–	–	–	–
O=C(Nc1nc2ccccc2s1)Nc1ccccc1Br	173 s	201 s	224 s	36.7%	118 s	128 s	156 s	–	–	–	–
O=C(Nc1nc2ccccc2s1)Nc1cc(C(F)(F)F)ccc1Cl	118 s	129 s	173 s	56.3%	77 s	89 s	114 s	–	–	–	–
COc1ccc(NC(=O)Nc2nc3ccccc3s2)cc1	160 s	180 s	181 s	53.1%	43 s	69 s	117 s	–	–	–	–
O=C(Nc1cccc(Cl)c1)Nc1nc2ccccc2s1	182 s	191 s	230 s	35.6%	101 s	144 s	169 s	–	–	–	–
COc1ccc(NC(=O)Nc2nc3ccccc3s2)c(OC)c1	94 s	107 s	149 s	69.8%	26 s	41 s	78 s	–	–	–	–
COc1ccccc1NC(=O)Nc1nc2ccccc2s1	72 s	95 s	103 s	75.9%	32 s	34 s	65 s	2.12 U/mg	12.34 µg/g	2.99 nmol/mg	1.65 U/g
O=C(NCc1ccco1)Nc1nc2ccccc2s1	81 s	85 s	95 s	77.3%	18 s	29 s	72 s	1.87 U/mg	16.53 µg/g	3.12 nmol/mg	1.36 U/g
O=C(Nc1ccc(Cl)cc1)Nc1nc2ccccc2s1	190 s	207 s	220 s	37.4%	78 s	129 s	166 s	–	–	–	–
O=C(Nc1ccc(Oc2ccccc2)cc1)Nc1nc2ccccc2s1	161 s	189 s	196 s	50.5%	51 s	67 s	126 s	–	–	–	–
N[C@@H](Cc1ccc(O)c(O)c1)C(=O)O [LEVODOPA]	119 s	122 s	137 s	65.6%	32 s	49 s	99 s	–	–	–	–
COc1cc(NC(=O)Nc2nc3ccccc3s2)cc(OC)c1OC	89 s	115 s	122 s	70.1%	37 s	46 s	81 s	–	–	–	–
O=C(CCCN1CCC(O)(c2ccc(Cl)cc2)CC1)c1ccc(F)cc1 [HALOPERIDOL]	300 s	300 s	300 s	–	155 s	242 s	264 s	0.85 U/mg	5.57 µg/g	4.92 nmol/mg	0.68 U/g
O=C(Nc1ccc(F)cc1)Nc1nc2ccccc2s1	219 s	234 s	263 s	29.8%	70 s	131 s	188 s	–	–	–	–
Cc1ccccc1NC(=O)Nc1nc2ccccc2s1	166 s	180 s	198 s	46.9%	66 s	101 s	134 s	–	–	–	–
O=C(Nc1nc2ccccc2s1)Nc1ccccc1Cl	205 s	212 s	289 s	37.1%	57 s	98 s	134 s	–	–	–	–
O=C(Nc1ccc([N+](=O)[O-])cc1)Nc1nc2ccccc2s1	199 s	234 s	253 s	30.5%	90 s	138 s	181 s	–	–	–	–
Nc1nc2c(cnn2CCc2ccccc2)c2nc(-c3ccco3)nn12 [SCH-58261]	45 s	58 s	72 s	86.4%	11 s	19 s	36 s	–	–	–	–
Cc1ccc(NC(=O)Nc2nc3ccccc3s2)cc1	160 s	171 s	185 s	47.2%	72 s	97 s	155 s	–	–	–	–
